Measurements reported in PubChem BioAssay (NCI).
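GI50 marks 50% less growth. At the TGI there is no net growth.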

Columns and labels:
Assay in all cases: NCI anticancer screen, dose series, 384-well format
786-0 renal = test system: 786-0 renal
A498 renal = test system: A498 renal
A549 NSCLC = test system: A549 NSCLC
ACHN renal = test system: ACHN renal
BT-549 breast = test system: BT-549 breast
CAKI-1 renal = test system: CAKI-1 renal
COLO 205 colon = test system: COLO 205 colon
DU-145 prostate = test system: DU-145 prostate
EKVX NSCLC = test system: EKVX NSCLC
HCC-2998 colon = test system: HCC-2998 colon
HCT-116 colon = test system: HCT-116 colon
HCT-15 colon = test system: HCT-15 colon
HL-60(TB) leukemia = test system: HL-60(TB) leukemia
HOP-62 NSCLC = test system: HOP-62 NSCLC
HOP-92 NSCLC = test system: HOP-92 NSCLC
HS 578T breast = test system: HS 578T breast
HT29 colon = test system: HT29 colon
IGROV1 ovarian = test system: IGROV1 ovarian
KM12 colon = test system: KM12 colon
LOX IMVI melanoma = test system: LOX IMVI melanoma
M14 melanoma = test system: M14 melanoma
MALME-3M melanoma = test system: MALME-3M melanoma
MCF7 breast = test system: MCF7 breast
MDA-MB-231 breast = test system: MDA-MB-231 breast
MDA-MB-435 melanoma = test system: MDA-MB-435 melanoma
MDA-MB-468 breast = test system: MDA-MB-468 breast
MOLT-4 leukemia = test system: MOLT-4 leukemia
NCI-H226 lung = test system: NCI-H226 lung
NCI-H23 lung = test system: NCI-H23 lung
NCI-H322M lung = test system: NCI-H322M lung
NCI-H460 NSCLC = test system: NCI-H460 NSCLC
NCI-H522 lung = test system: NCI-H522 lung
NCI/ADR-RES ovarian = test system: NCI/ADR-RES ovarian
OVCAR-3 ovarian = test system: OVCAR-3 ovarian
OVCAR-4 ovarian = test system: OVCAR-4 ovarian
OVCAR-5 ovarian = test system: OVCAR-5 ovarian
OVCAR-8 ovarian = test system: OVCAR-8 ovarian
PC-3 prostate = test system: PC-3 prostate
RPMI-8226 leukemia = test system: RPMI-8226 leukemia
RXF 393 renal = test system: RXF 393 renal
SF-295 CNS = test system: SF-295 CNS
SF-539 CNS = test system: SF-539 CNS
SK-MEL-28 melanoma = test system: SK-MEL-28 melanoma
SK-MEL-5 melanoma = test system: SK-MEL-5 melanoma
SK-OV-3 ovarian = test system: SK-OV-3 ovarian
SN12C renal = test system: SN12C renal
SNB-19 CNS = test system: SNB-19 CNS
SNB-75 CNS = test system: SNB-75 CNS
SR leukemia = test system: SR leukemia
T-47D breast = test system: T-47D breast
U251 glioblastoma = test system: U251 glioblastoma
UACC-62 melanoma = test system: UACC-62 melanoma
UO-31 renal = test system: UO-31 renal

With `Cc1c(C(=O)Nc2ccc(N3C[C@@H](C)O[C@@H](C)C3)nc2)cccc1-c1ccc(OC(F)(F)F)cc1` the GI50 (786-0 renal) was 6.53 µM, the TGI (786-0 renal) was 17.5 µM and the GI50 (A498 renal) was 7 µM. It also gave a TGI (A498 renal) of 12.7 µM, a GI50 (A549 NSCLC) of 6.24 µM and a TGI (A549 NSCLC) of 11.7 µM. It also gave a GI50 (ACHN renal) of 11.4 µM, a TGI (ACHN renal) of 24.8 µM and a GI50 (BT-549 breast) of 8.61 µM. It also gave a TGI (BT-549 breast) of 22.1 µM, a GI50 (CAKI-1 renal) of 14.7 µM and a TGI (CAKI-1 renal) of 28 µM. For the same compound, the GI50 (COLO 205 colon) was 3.35 µM, the TGI (COLO 205 colon) was 4.86 µM and the GI50 (DU-145 prostate) was 8.5 µM. For the same compound, the TGI (DU-145 prostate) was 20.9 µM, the GI50 (EKVX NSCLC) was 5.38 µM and the TGI (EKVX NSCLC) was 12.6 µM. For the same compound, the GI50 (HCC-2998 colon) was 11.9 µM, the TGI (HCC-2998 colon) was 16.5 µM and the GI50 (HCT-116 colon) was 6.16 µM. The TGI (HCT-116 colon) was 17.8 µM, the GI50 (HCT-15 colon) was 7.15 µM and the TGI (HCT-15 colon) was 13.3 µM. For the same compound, the GI50 (HL-60(TB) leukemia) was 6.8 µM, the TGI (HL-60(TB) leukemia) was 12.7 µM and the GI50 (HOP-62 NSCLC) was 2230 nM. For the same compound, the TGI (HOP-62 NSCLC) was 4.12 µM, the GI50 (HOP-92 NSCLC) was 5.92 µM and the TGI (HOP-92 NSCLC) was 14 µM. The GI50 (HS 578T breast) was 8.01 µM, the TGI (HS 578T breast) was 20.9 µM and the GI50 (HT29 colon) was 3.55 µM. It also gave a TGI (HT29 colon) of 5.04 µM, a GI50 (IGROV1 ovarian) of 12.3 µM and a TGI (IGROV1 ovarian) of 25.4 µM. For the same compound, the GI50 (KM12 colon) was 12 µM, the TGI (KM12 colon) was 16.6 µM and the GI50 (LOX IMVI melanoma) was 7.94 µM. The TGI (LOX IMVI melanoma) was 13.8 µM, the GI50 (M14 melanoma) was 16 µM and the TGI (M14 melanoma) was 30.4 µM. The GI50 (MALME-3M melanoma) was 7.69 µM, the TGI (MALME-3M melanoma) was 19.6 µM and the GI50 (MCF7 breast) was 7.5 µM. It also gave a TGI (MCF7 breast) of 13.7 µM, a GI50 (MDA-MB-231 breast) of 3.63 µM and a TGI (MDA-MB-231 breast) of 14.8 µM. For the same compound, the GI50 (MDA-MB-435 melanoma) was 17.6 µM, the TGI (MDA-MB-435 melanoma) was 32.7 µM and the GI50 (MDA-MB-468 breast) was 5.63 µM. For the same compound, the TGI (MDA-MB-468 breast) was 11.3 µM, the GI50 (MOLT-4 leukemia) was 4.21 µM and the TGI (MOLT-4 leukemia) was 15.4 µM. For the same compound, the GI50 (NCI-H226 lung) was 6.16 µM, the TGI (NCI-H226 lung) was 12.8 µM and the GI50 (NCI-H23 lung) was 7.39 µM. It also gave a TGI (NCI-H23 lung) of 13.5 µM, a GI50 (NCI-H322M lung) of 13.3 µM and a TGI (NCI-H322M lung) of 26.3 µM. It also gave a GI50 (NCI-H460 NSCLC) of 9.46 µM, a TGI (NCI-H460 NSCLC) of 14.5 µM and a GI50 (NCI-H522 lung) of 1900 nM. The TGI (NCI-H522 lung) was 3.79 µM, the GI50 (NCI/ADR-RES ovarian) was 5.04 µM and the TGI (NCI/ADR-RES ovarian) was 18 µM. It also gave a GI50 (OVCAR-3 ovarian) of 10.6 µM, a TGI (OVCAR-3 ovarian) of 15.3 µM and a GI50 (OVCAR-4 ovarian) of 4.99 µM. It also gave a TGI (OVCAR-4 ovarian) of 14.9 µM, a GI50 (OVCAR-5 ovarian) of 16.6 µM and a TGI (OVCAR-5 ovarian) of 30.7 µM. The GI50 (OVCAR-8 ovarian) was 10.6 µM, the TGI (OVCAR-8 ovarian) was 15.3 µM and the GI50 (PC-3 prostate) was 12.4 µM. The TGI (PC-3 prostate) was 25 µM, the GI50 (RPMI-8226 leukemia) was 6.67 µM and the TGI (RPMI-8226 leukemia) was 12.7 µM. It also gave a GI50 (RXF 393 renal) of 4.85 µM, a TGI (RXF 393 renal) of 8.09 µM and a GI50 (SF-295 CNS) of 8.16 µM. The GI50 (SF-539 CNS) was 11.2 µM, the TGI (SF-539 CNS) was 18.1 µM and the GI50 (SK-MEL-28 melanoma) was 12.3 µM. The TGI (SK-MEL-28 melanoma) was 17.8 µM, the GI50 (SK-MEL-5 melanoma) was 7.06 µM and the TGI (SK-MEL-5 melanoma) was 13.1 µM. The GI50 (SK-OV-3 ovarian) was 3.89 µM, the TGI (SK-OV-3 ovarian) was 5.34 µM and the GI50 (SN12C renal) was 13.7 µM. It also gave a TGI (SN12C renal) of 26.8 µM, a GI50 (SNB-19 CNS) of 15 µM and a TGI (SNB-19 CNS) of 28.4 µM. The GI50 (SNB-75 CNS) was 5.67 µM, the GI50 (SR leukemia) was 5.32 µM and the TGI (SR leukemia) was 13.4 µM. The GI50 (T-47D breast) was 1470 nM, the TGI (T-47D breast) was 3.43 µM and the GI50 (U251 glioblastoma) was greater than 31.6 µM. For the same compound, the TGI (U251 glioblastoma) was greater than 31.6 µM, the GI50 (UACC-62 melanoma) was 13 µM and the TGI (UACC-62 melanoma) was 17.5 µM. The GI50 (UO-31 renal) was greater than 40.2 µM and the TGI (UO-31 renal) was greater than 54.6 µM.
